Where “and” joins values, the source holds several entries; their conditions need not be identical. Equal values may be shown once.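 1) Cells in 96-well plates. 2) Compound, 48 h, 5 concentrations. 3) Linear interpolation between surrounding doses. 4) Unreached endpoint = highest concentration. Here, GI50 denotes the concentration required for 50% inhibition of growth. TGI: concentration producing complete growth inhibition.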
Columns and labels:
Assay in all cases: inhibition of tumour cell growth, NCI panel, 48 h
HOP-18 NSCLC = test system: HOP-18 NSCLC
SNB-78 CNS = test system: SNB-78 CNS
NCI-H522 lung = test system: NCI-H522 lung
KM20L2 colon = test system: KM20L2 colon
LXFL 529 NSCLC = test system: LXFL 529 NSCLC
HT29 colon = test system: HT29 colon
CAKI-1 renal = test system: CAKI-1 renal
XF 498 CNS = test system: XF 498 CNS
DLD-1 colon = test system: DLD-1 colon
DMS 273 small cell lung = test system: DMS 273 small cell lung
DMS 114 small cell lung = test system: DMS 114 small cell lung
HL-60(TB) leukemia = test system: HL-60(TB) leukemia
M19-MEL melanoma = test system: M19-MEL melanoma
MCF7 breast = test system: MCF7 breast
RXF-631 renal = test system: RXF-631 renal

| SMILES | TGI (HOP-18 NSCLC) | TGI (SNB-78 CNS) | TGI (NCI-H522 lung) | TGI (KM20L2 colon) | TGI (LXFL 529 NSCLC) | TGI (HT29 colon) | TGI (CAKI-1 renal) | TGI (XF 498 CNS) | TGI (DLD-1 colon) | TGI (DMS 273 small cell lung) | TGI (DMS 114 small cell lung) | TGI (HL-60(TB) leukemia) | TGI (M19-MEL melanoma) | TGI (MCF7 breast) | TGI (RXF-631 renal) | GI50 (HL-60(TB) leukemia) |
| --- | --- | --- | --- | --- | --- | --- | --- | --- | --- | --- | --- | --- | --- | --- | --- | --- |
| COc1ccc2c(c1)OC(c1ccccc1O)CC2=O (stereo unspecified) | > 100 µM | 84.8 µM | 92.8 µM | > 100 µM | 71.5 µM | > 100 µM | > 100 µM | > 100 µM | > 100 µM |  |  |  |  |  |  |  |
| COC(=O)N/N=C(/Cc1occc(=O)c1O)C(=O)Nc1ccc([N+](=O)[O-])cc1[N+](=O)[O-] | > 100 µM | > 100 µM | > 100 µM | > 100 µM | > 100 µM | > 100 µM | > 100 µM | > 100 µM | > 100 µM | > 100 µM | > 100 µM | > 100 µM | > 100 µM |  |  |  |
| O=C1NC2C(CCO)CC=C[C@H]2c2cc3c(cc21)OCO3 (stereo partly specified) |  | > 100 µM | > 100 µM | > 100 µM | > 100 µM | > 100 µM |  |  | > 100 µM | > 100 µM | > 100 µM | > 100 µM | > 100 µM |  |  |  |
| CCN(CC)CCCNc1ncc(C)c2c1c1ccc3c(O)cccc3c1n2C | 16.3 µM | > 61 µM | 2.29 µM | 10.5 µM | 3.06 µM | 5.04 µM | 3.4 µM | 29.5 µM | 3.85 µM | 2.14 µM | 2.68 µM | 5.07 µM |  | 2.06 µM |  |  |
| COC1=CC(=O)C2C(C1=O)C(c1ccc(OC)c(OC)c1)[C@H]2C (stereo partly specified) | 35.1 µM | > 100 µM | 26.1 µM | > 100 µM | 33.3 µM | > 100 µM | 24 µM | 29.9 µM | 31.5 µM | 60.3 µM | 42.3 µM | 46.7 µM | 42.1 µM |  | 32.7 µM |  |
| C/C(=N/NC(N)=S)C(CN(C)C)C(C1=C(O)c2ccccc2OC1)c1ccccc1 (stereo unspecified) | > 100 µM | > 100 µM | > 100 µM | > 100 µM | > 100 µM | > 100 µM | > 100 µM | > 100 µM | > 100 µM | > 100 µM | > 100 µM | > 100 µM | > 100 µM |  |  |  |
| O=C(N/N=C(\c1nc2ccc(Cl)cc2[nH]c1=O)C(O)c1ccccc1Cl)c1ccncc1 (stereo unspecified) | > 100 µM |  | > 100 µM | > 100 µM | > 100 µM | > 100 µM | > 100 µM |  | > 100 µM | > 100 µM | > 100 µM | > 100 µM | > 100 µM |  | > 100 µM |  |
| CN1N=C2c3ccccc3CC[C@H]2C1c1cccc(O)c1 (stereo partly specified) |  |  | > 100 µM | > 100 µM | > 100 µM | > 100 µM |  | > 100 µM | > 100 µM | > 100 µM | > 100 µM | > 100 µM | > 100 µM |  |  |  |
| CCN(CC)CCCCC1CCN(CC(=O)N2c3cc(Cl)ccc3NC(=O)CC2C)CC1 (stereo unspecified) | > 100 µM |  |  | > 100 µM | > 100 µM | > 100 µM | > 100 µM |  | > 100 µM | > 100 µM |  | > 100 µM | > 100 µM |  |  |  |
| Nc1ncnc2c1ncn2C1CC(OC2CCCCO2)C(CO)O1 (stereo unspecified) | > 100 µM | > 100 µM | > 100 µM | > 100 µM | > 100 µM | > 100 µM |  | > 100 µM | > 100 µM | > 100 µM | > 100 µM | > 100 µM | > 100 µM |  |  |  |
| CCCc1c(C(=O)OCC)[nH]c(C(=O)CCC(=O)c2[nH]c(C(=O)OCC)c(CCC)c2C(=O)OCC)c1C(=O)OCC | > 100 µM | > 100 µM | > 100 µM | > 100 µM | > 100 µM | > 100 µM | > 100 µM | > 100 µM | > 100 µM | > 100 µM | > 100 µM | > 100 µM | > 100 µM |  |  |  |
| CCOC(=O)Nn1c(C)cc(C(=O)OC)c1C |  | > 100 µM | > 100 µM | > 100 µM | > 100 µM | > 100 µM | > 100 µM | > 100 µM | > 100 µM | > 100 µM | > 100 µM | > 100 µM | > 100 µM |  |  |  |
| O=c1cc(-c2cccc(OCc3ccccc3)c2)[nH]c2cc3c(cc12)OCO3 |  |  | 1.42 µM |  |  | > 97.3 µM | > 50.8 µM |  |  |  |  | 0.412 µM |  | > 100 µM |  |  |
| CN(C)CCCN1c2ccccc2CCc2cc([N+](=O)[O-])ccc21 |  |  | 60.6 µM and 31 µM |  |  | 41.6 µM and 32.8 µM | 59.7 µM and 32.2 µM |  |  |  |  | 54 µM and 9.46 µM |  | 79 µM and 31.8 µM |  | 19.2 µM and 2.83 µM |
| Cc1nnc2n1N=C(c1cc(F)c(Cl)cc1Cl)/C(=C/c1ccc3c(c1)OCO3)S2 |  |  | 78.2 µM |  |  | > 100 µM | > 100 µM |  |  |  |  | > 100 µM |  | > 100 µM |  |  |

Source: PubChem BioAssay (NCI)
